Experimental findings from patent US10093656B2, “Fused-ring or tricyclic aryl pyrimidine compound used as kinase inhibitor” (NANJING SANHOME PHARMACEUTICAL CO., LTD, priority 2015, dated 2018) are described below.

In one test the target is T1, EGFR d746-750/T790M (Homo sapiens, UniProt P00533, DEL746-750/T790M).
T1 construct: purchased Carna Biosciences (Japan)
Briefly: EGFR d746-750/T790M enzyme HTRF inhibition assay. The format is biochemical. Conditions: 40 μM ATP. The procedure:
(§1) Enzyme: EGFR wild type, EGFR T790M/L858R, EGFR T790M and INSR were purchased from Life technology (Madison, Wis.), EGFR d746-750/T790M was purchased from Carna Biosciences (Japan).
(§2) HTRF Kit was purchased from Cis-Bio International which contained the Eu-labeled TK1 antibody, XL665 and biotin-labeled TK1 polypeptide substrates.
(§3) Detecting instrument: Envision (PerkinElmer).
(§4) The test compound was diluted 3-fold to obtain 10 doses of which the final concentration was from 300 nM to 0.015 nM.
EGFR d746-750/T790M Enzyme Reaction Mixture System:
0.025 nM EGFR d746-750/T790M, 1 μM biotin-TK1 peptide, 40 μM ATP enzyme buffer, a total of which was 10 μL. The reaction plate was white Proxiplate 384-Plus plate (PerkinElmer) and the mixture was reacted at 23° C. for 60 minutes.
(§5) Reaction Detection: 10 μL of detection reagent containing Antibody 2 nM and XL665 62.5 nM was added, and the reagent was incubated at 23° C. for 60 minutes. The plates were read by Envision.
(§6) The reading is converted to the suppression rate (%) by the following formula […]/(Max-Min)*100%. IC50 Data was measured by four-parameter curve fitting (Model 205 in XLFITS, IDBS).

The next test addresses T2, EGFR T790M/L858R (Homo sapiens, UniProt P00533, L858R/T790M).
T2 construct: purchased Life technology (Madison, Wis.)
Briefly: EGFR T790M/L858R enzyme HTRF inhibition assay. Format: biochemical. Conditions: 20 μM ATP, read-out: EGFR L858R/T79M IC50. The procedure: as §1, §2, §3, §4
EGFR T790M/L858R Enzyme Reaction Mixture System:
0.04 nM EGFR T790M/L858R, 1 μM biotin-TK1 peptide, 20 μM ATP enzyme buffer, a total of which was 10 μL. The reaction plate was white Proxiplate 384-Plus plate (PerkinElmer) and the mixture was reacted at 23° C. for 60 minutes.
as §5, §6
Background: Time-resolved FRET reads energy transfer from a long-lived donor to a nearby acceptor.

The test system of test [1] is NCI-H1975 cells EGFR L858R/T790M. Nature of the test: NCI-H1975 cell viability assay (Cell Titer-Glo, 6 days). As to conditions: Homo sapiens, 144 h. Format: cell-based. The procedure: (§7) RPMI1640, fetal bovine serum, penicillin/streptomycin solution were purchased from Life Technology (Madison, Wis.). Cell Titer-Glo luminescent cell viability reagents were purchased from Promega (Madison, Wis.). A431 cell line and NCI-H1975 cell line were purchased from European Collection of Cell Cultures (ECACC). Plate Reader Instrument: Envision (PerkinElmer).
(§8) 384-Well plates, 300 of A431 cells and NCI-H1975 cells were inoculated per well, a volume of which was 45 μL. And the plates were incubated overnight in a CO2 incubator at 37° C. The test compound was diluted 3-fold to obtain 10 dose concentrations, the final concentrations of which were from 10 μM to 0.508 nM, two wells. The middle plates were filled with 49 μL of medium per well. 1 μL of compound in the gradient dilution compound plates was transferred to the middle plates and mixed well. And then 5 μL liquid in the middle plates was taken to the cell plates. The cells were incubated in a CO2 incubator for 6 days. After 6 days, 25 μL of detection reagents was added. And then the mixture was incubated at room temperature for 10 minutes and the plates were read by Envision.
(§9) The reading is converted to the suppression rate by the following formula (%) (Max-Sample)/(Max-Min)*100%. IC50 Data was measured by Four-parameter curve fitting (Model 205 in XLFIT5, IDBS).

The subject of a further test is A431 cells EGFR WT. Nature of the test: A431 cell viability assay (Cell Titer-Glo, 6 days). The format is cell-based, human. As to conditions: for IC50: Homo sapiens, A-431, 144 h, A431 cells, 6 days; for A431:NCI-H1975 (ratio): ratio of cell IC50 A431 to NCI-H1975. The procedure: as §7, §8, §9
A general note: In ATP-based viability assays light output follows the ATP content of the culture.

Another test has as its target T3, EGFR wild type (Homo sapiens, UniProt P00533).
T3 construct: purchased Life technology (Madison, Wis.)
Nature of the test: Wild-type EGFR enzyme HTRF inhibition assay. As to conditions: 25 μM ATP, read-out: EGFR WT IC50. Format: biochemical. As for the experimental part:
as §1, §2, §3, §4
Wild-Type EGFR Enzyme Reaction Mixture System:
0.05 nM Wild-type EGFR, 1 μM biotin-TK1 peptide, 25 μM ATP enzyme buffer, a total of which was 10 μL. The reaction plate was white Proxiplate 384-Plus plate (PerkinElmer) and the mixture was reacted at 23° C. for 60 minutes.
as §5, §6

T3 sequence (P00533 25-1210): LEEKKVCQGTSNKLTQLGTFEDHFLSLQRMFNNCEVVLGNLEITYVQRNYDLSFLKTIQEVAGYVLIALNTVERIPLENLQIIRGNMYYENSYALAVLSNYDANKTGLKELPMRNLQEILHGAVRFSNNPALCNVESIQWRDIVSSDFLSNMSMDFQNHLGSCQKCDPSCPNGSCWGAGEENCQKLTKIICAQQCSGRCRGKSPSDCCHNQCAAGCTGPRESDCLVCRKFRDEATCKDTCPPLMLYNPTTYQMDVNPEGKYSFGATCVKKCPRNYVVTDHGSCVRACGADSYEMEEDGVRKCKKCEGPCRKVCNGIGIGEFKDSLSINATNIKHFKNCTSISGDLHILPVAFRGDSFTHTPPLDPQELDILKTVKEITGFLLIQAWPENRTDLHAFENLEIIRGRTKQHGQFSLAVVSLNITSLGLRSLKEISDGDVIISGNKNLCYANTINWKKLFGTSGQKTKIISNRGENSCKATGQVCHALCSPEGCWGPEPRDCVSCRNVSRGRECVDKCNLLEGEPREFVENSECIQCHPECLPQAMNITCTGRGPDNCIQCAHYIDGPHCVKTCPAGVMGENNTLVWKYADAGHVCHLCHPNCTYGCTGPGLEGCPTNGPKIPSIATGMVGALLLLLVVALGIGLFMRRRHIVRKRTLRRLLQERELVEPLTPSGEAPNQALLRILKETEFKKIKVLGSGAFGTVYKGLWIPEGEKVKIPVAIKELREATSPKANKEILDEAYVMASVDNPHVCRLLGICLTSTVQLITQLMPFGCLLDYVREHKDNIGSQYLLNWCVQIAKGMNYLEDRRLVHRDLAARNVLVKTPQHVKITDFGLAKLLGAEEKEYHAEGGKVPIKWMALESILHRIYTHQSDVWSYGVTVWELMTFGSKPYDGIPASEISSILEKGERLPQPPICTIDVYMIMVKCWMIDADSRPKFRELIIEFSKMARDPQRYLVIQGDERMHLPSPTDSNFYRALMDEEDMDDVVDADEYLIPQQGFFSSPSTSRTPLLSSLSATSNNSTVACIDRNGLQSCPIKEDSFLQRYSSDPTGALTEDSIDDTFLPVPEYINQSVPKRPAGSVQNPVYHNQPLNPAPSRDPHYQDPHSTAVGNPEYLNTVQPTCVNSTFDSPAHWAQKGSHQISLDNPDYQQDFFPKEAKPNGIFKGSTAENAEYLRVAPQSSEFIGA
T2 sequence (P00533 25-1210 T790M/L858R): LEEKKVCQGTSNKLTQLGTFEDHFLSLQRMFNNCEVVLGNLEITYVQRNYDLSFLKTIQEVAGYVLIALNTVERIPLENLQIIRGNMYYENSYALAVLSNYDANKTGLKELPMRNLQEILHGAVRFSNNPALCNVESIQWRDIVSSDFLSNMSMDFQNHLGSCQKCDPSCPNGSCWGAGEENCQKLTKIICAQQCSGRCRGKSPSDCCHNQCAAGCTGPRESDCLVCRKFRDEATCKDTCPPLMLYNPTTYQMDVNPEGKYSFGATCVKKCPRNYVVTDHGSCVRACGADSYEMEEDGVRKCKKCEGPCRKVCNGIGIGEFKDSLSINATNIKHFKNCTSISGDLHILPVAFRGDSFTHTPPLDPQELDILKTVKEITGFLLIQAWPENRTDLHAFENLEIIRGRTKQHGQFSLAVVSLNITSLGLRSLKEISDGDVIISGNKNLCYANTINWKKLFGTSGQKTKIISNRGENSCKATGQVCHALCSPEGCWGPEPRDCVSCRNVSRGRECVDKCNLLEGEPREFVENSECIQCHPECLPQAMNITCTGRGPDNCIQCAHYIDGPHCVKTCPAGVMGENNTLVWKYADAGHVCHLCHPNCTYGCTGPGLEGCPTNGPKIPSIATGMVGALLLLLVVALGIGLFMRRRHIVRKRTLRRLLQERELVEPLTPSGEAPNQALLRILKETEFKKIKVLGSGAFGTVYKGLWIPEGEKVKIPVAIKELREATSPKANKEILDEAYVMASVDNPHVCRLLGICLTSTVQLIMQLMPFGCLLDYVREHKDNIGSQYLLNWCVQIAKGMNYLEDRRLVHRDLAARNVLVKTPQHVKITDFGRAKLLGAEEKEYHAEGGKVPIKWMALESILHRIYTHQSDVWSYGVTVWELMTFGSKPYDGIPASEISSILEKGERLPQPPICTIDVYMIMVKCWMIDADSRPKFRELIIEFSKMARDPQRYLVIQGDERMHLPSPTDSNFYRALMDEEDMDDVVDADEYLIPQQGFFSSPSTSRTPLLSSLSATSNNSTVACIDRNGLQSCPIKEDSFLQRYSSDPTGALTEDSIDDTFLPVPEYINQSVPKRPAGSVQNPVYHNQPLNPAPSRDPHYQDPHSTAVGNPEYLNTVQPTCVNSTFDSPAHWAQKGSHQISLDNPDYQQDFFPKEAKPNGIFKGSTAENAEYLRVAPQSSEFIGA
T1 sequence (P00533 with tags, fused parts or gaps DEL746-750/T790M limits assumed): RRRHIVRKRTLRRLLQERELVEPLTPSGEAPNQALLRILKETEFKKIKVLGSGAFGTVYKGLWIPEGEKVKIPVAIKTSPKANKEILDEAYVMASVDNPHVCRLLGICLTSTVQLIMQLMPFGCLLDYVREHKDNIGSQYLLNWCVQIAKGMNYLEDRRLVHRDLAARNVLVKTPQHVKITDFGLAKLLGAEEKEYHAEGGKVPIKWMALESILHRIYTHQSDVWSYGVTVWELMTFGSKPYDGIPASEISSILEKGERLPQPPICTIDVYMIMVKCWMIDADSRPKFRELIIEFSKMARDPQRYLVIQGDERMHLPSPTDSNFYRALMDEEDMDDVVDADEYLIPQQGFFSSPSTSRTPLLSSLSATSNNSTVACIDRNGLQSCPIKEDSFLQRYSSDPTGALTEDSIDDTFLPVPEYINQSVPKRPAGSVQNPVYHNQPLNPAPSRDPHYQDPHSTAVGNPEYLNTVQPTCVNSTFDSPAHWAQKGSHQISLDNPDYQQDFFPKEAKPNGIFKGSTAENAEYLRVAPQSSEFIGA

As for `C=CC(=O)Nc1cc(Nc2nccc(-c3c4n(c5ccccc35)CCOC4)n2)c(OCC)cc1N(C)CCN(C)C` [Embodiment 28, N-(5-((4-(3,4-Dihydro-1H-[1,4]oxazino[4,3-a]indol-10-yl)pyrimidin-2-yl)amino)-2-((2-(dimethylamino)ethyl)(methyl)amino)-4-ethoxyphenyl)acrylamide], the IC50 against EGFR d746-750/T790M was found to be 0.2 nM; at EGFR T790M/L858R it was 0.2 nM; in test [1], 11 nM; in the test with A431 cells EGFR WT, 517 nM; at EGFR wild type, 1.5 nM. In addition, the “A431:NCI-H1975 (ratio)” value in the test with A431 cells EGFR WT amounted to 47.
With `C=CC(=O)Nc1cc(Nc2nccc(-c3cn4c5c(cccc35)OCC(C)(C)C4)n2)c(OC)cc1N(C)CCN(C)C` [Embodiment 41, N-(5-((4-(3,3-Dimethyl-3,4-dihydro-2H-[1,4]oxazepino[2,3,4-hi]indol-7-yl)pyrimidin-2-yl)amino)-2-((2-(dimethylamino)ethyl)(methyl)amino)-4-methoxyphenyl)acrylamide], the IC50 on EGFR d746-750/T790M amounted to 2.6 nM; at EGFR T790M/L858R it was 1.5 nM; in test [1], 201 nM; in the test on A431 cells EGFR WT it was 1720 nM; on EGFR wild type, 4.9 nM. Besides, in the test with A431 cells EGFR WT, the “A431:NCI-H1975 (ratio)” value is given as 8.5.
On to `C=CC(=O)Nc1cc(Nc2nccc(-c3c4n(c5ccccc35)CCOC4)n2)c(OC)cc1N(C)C(C)CN(C)C` (stereo not drawn) [Embodiment 20, N-(5-((4-(3,4-Dihydro-1H-[1,4]oxazino[4,3-a]indol-10-yl)pyrimidin-2-yl)amino)-2-((1-(dimethylamino)propan-2-yl)(methyl)amino)-4-methoxyphenyl)acrylamide], for which the IC50 on EGFR d746-750/T790M amounted to 0.17 nM; at EGFR T790M/L858R, 0.2 nM; in test [1], 4 nM; in the test on A431 cells EGFR WT, 164 nM; at EGFR wild type, 0.66 nM. In the test on A431 cells EGFR WT, the “A431:NCI-H1975 (ratio)” value worked out at 41.0.
For `C=CC(=O)Nc1cc(Nc2nccc(-c3c4n(c5ccccc35)CCCC4)n2)c(OC)cc1N(C)CCN(C)C` [Embodiment 15, N-(2-((2-(Dimethylamino)ethyl)(methyl)amino)-4-methoxy-5-((4-(6,7,8,9-tetrahydropyrido[1,2-a]indol-10-yl)pyrimidin-2-yl)amino)phenyl)acrylamide], the IC50 at EGFR d746-750/T790M stood at 0.37 nM; at EGFR T790M/L858R, 0.36 nM; in test [1], 15 nM; with A431 cells EGFR WT, 230 nM; on EGFR wild type, 1.03 nM. For the same molecule, the “A431:NCI-H1975 (ratio)” value with A431 cells EGFR WT was determined as 15.3.
With `C=CC(=O)Nc1cc(Nc2nccc(-c3c4n(c5ccccc35)CCOC4)n2)c(OC)cc1N(C)CCNC(C)(C)C` [Embodiment 24, N-(2-((2-(tert-Butylamino)ethyl)(methyl)amino)-5-((4-(3,4-dihydro-1H-[1,4]oxazino[4,3-a]indol-10-yl)pyrimidin-2-yl)amino)-4-methoxyphenyl)acrylamide], the IC50 came to 1.3 nM against EGFR d746-750/T790M; 1.9 nM on EGFR T790M/L858R; 172 nM in test [1]; 2660 nM in the test on A431 cells EGFR WT; 36.4 nM at EGFR wild type. The “A431:NCI-H1975 (ratio)” value in the test on A431 cells EGFR WT is 15.
In the case of `C=CC(=O)Nc1cc(Nc2nccc(-c3c4n(c5ccccc35)CCC4)n2)c(OC)cc1CN1CCOCC1` [Embodiment 9, N-(5-((4-(2,3-Dihydro-1H-pyrrolo[1,2-a]indol-9-yl)pyrimidin-2-yl)amino)-4-methoxy-2-(morpholinomethyl)phenyl)acrylamide], the IC50 worked out at 0.51 nM against EGFR d746-750/T790M; 0.75 nM on EGFR T790M/L858R; 111 nM in test [1]; 1440 nM with A431 cells EGFR WT; 6.28 nM on EGFR wild type. For the same molecule, the “A431:NCI-H1975 (ratio)” value in the test on A431 cells EGFR WT worked out at 13.0.
Regarding `C=CC(=O)Nc1cc(Nc2nccc(-c3c4n(c5ccccc35)CCC4=O)n2)c(OC)cc1N(C)CCN(C)C` [Embodiment 12, N-(2-((2-(Dimethylamino)ethyl)(methyl)amino)-4-methoxy-5-((4-(1-oxo-2,3-dihydro-1H-pyrrolo[1,2-a]indol-9-yl)pyrimidin-2-yl)amino)phenyl)acrylamide], the IC50 against EGFR d746-750/T790M came out at 0.31 nM; at EGFR T790M/L858R it was 0.33 nM; in test [1], 4.8 nM; in the test with A431 cells EGFR WT, 369 nM; at EGFR wild type, 0.43 nM. The “A431:NCI-H1975 (ratio)” value in the test with A431 cells EGFR WT is 76.9.
For `C=CC(=O)Nc1cc(Nc2nccc(-c3c4n(c5ccccc35)CCOC4)n2)c(OC)cc1N(CC)CCN(C)C` [Embodiment 19, N-(5-((4-(3,4-Dihydro-1H-[1,4]oxazino[4,3-a]indol-10-yl)pyrimidin-2-yl)amino)-2-((2-(dimethylamino)ethyl)(ethyl)amino)-4-methoxyphenyl)acrylamide], the IC50 amounted to 0.26 nM against EGFR d746-750/T790M; 0.3 nM on EGFR T790M/L858R; 29 nM in test [1]; 965 nM in the test with A431 cells EGFR WT; 2.7 nM at EGFR wild type. The “A431:NCI-H1975 (ratio)” value in the test with A431 cells EGFR WT stood at 33.
For `C=CC(=O)Nc1cc(Nc2ncc(F)c(-c3c4n(c5ccccc35)C(C)(C)COC4)n2)c(OC)cc1N(C)CCN(C)C.CS(=O)(=O)O` [Embodiment 36, N-(5-((4-(4,4-Dimethyl-3,4-dihydro-1H-[1,4]oxazino[4,3-a]indol-10-yl)-5-fluoropyrimidin-2-yl)amino)-2-((2-(dimethylamino)ethyl)(methyl)amino)-4-methoxyphenyl)acrylamide methanesulfonate], the IC50 came out at 1.3 nM on EGFR d746-750/T790M; 1.3 nM at EGFR T790M/L858R; 175 nM in test [1]; 438 nM with A431 cells EGFR WT; 2.7 nM on EGFR wild type. Further, the “A431:NCI-H1975 (ratio)” value in the test on A431 cells EGFR WT stood at 2.5.
Turning to `C=CC(=O)Nc1cc(Nc2ncc(F)c(-c3c4n(c5c(OC)cccc35)CCOC4)n2)c(OC)cc1N(C)CCN(C)C` [Embodiment 35, N-(2-((2-(Dimethylamino)ethyl)(methyl)amino)-5-((5-fluoro-4-(6-methoxy-3,4-dihydro-1H-[1,4]oxazino[4,3-a]indol-10-yl)pyrimidin-2-yl)amino)-4-methoxyphenyl)acrylamide], the IC50 on EGFR d746-750/T790M worked out at 0.6 nM; on EGFR T790M/L858R it was 1.2 nM; in test [1] it was 107 nM; in the test on A431 cells EGFR WT it was 971 nM; on EGFR wild type, 1.5 nM. In addition, the “A431:NCI-H1975 (ratio)” value in the test on A431 cells EGFR WT stood at 9.1.
For `C=CC(=O)Nc1cc(Nc2nccc(-c3c4n(c5ccccc35)CCC4)n2)c(OC)cc1N(C)CCN1CCCC1` [Embodiment 5], the IC50 against EGFR d746-750/T790M is 0.97 nM; at EGFR T790M/L858R it was 0.93 nM; in test [1] it was 19 nM; in the test with A431 cells EGFR WT, 2670 nM; on EGFR wild type, 7.28 nM. In addition, the “A431:NCI-H1975 (ratio)” value in the test with A431 cells EGFR WT was 140.6.
For `C=CC(=O)Nc1cc(Nc2nccc(-c3c4n(c5ccccc35)CCOC4)n2)c(OC)cc1N(C)CCN(CC)CC` [Embodiment 16, N-(2-((2-(Diethylamino)ethyl)(methyl)amino)-5-((4-(3,4-dihydro-1H-[1,4]oxazino[4,3-a]indol-10-yl)pyrimidin-2-yl)amino)-4-methoxyphenyl)acrylamide], the IC50 against EGFR d746-750/T790M is 0.33 nM; at EGFR T790M/L858R, 0.29 nM; in test [1], 17 nM; with A431 cells EGFR WT, 1060 nM; on EGFR wild type, 4 nM. In addition, in the test on A431 cells EGFR WT, the “A431:NCI-H1975 (ratio)” value was 63.
